Measured values reported in patent US20240383904A1, “HETEROCYCLIC COMPOUNDS” (Hoffmann-La Roche Inc., priority 2021, published 2024).
pIC50: −log10 of the molar value.

Target: T1, MAGL (Homo sapiens, UniProt Q99685)
T1 sequence (Q99685 1-303): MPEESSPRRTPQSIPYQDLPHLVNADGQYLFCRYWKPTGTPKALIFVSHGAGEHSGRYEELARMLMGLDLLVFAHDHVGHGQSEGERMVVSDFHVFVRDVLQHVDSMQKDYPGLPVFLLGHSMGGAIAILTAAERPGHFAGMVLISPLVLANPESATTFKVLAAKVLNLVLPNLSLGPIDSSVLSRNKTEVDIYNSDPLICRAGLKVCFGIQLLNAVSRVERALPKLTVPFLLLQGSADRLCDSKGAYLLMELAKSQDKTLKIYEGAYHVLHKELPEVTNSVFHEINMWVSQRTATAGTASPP
Assay: 2-AG assay: MAGL inhibitory activity by hydrolysis of 2-arachidonoylglycerol to arachidonic acid, followed by mass spectrometry
Format: biochemical
Details: 15 min preincubation, 30 min reaction at RT, 8 μM 2-arachidonoylglycerol

Compound: O=C1CCC2(CN(C(=O)N3CC4(CC(Cc5nc(C(F)(F)F)ns5)C4)C3)C2)N1 [Example 57, 2-[6-[[3-(trifluoromethyl)-1,2,4-thiadiazol-5-y1]methyl]-2-azaspiro[3.3]heptane-2-carbonyl]-2,5-diazaspiro[3.4]octan-6-one]
- pIC50: 7.87

Compound: Cn1ncc(C(F)(F)F)c1CC1CC2(C1)CN(C(=O)N1CC3(CCC(=O)N3)C1)C2 [Example 167, 2-[6-[[2-methyl-4-(trifluoromethyl)pyrazol-3-yl]methyl]-2-azaspiro[3.3]heptane-2-carbonyl]-2,5-diazaspiro[3.4]octan-6-one]
- pIC50: 8.76

Compound: O=C1CCC2(CN(C(=O)N3CC4(CC(Cc5ccc(OC(F)(F)F)cn5)C4)C3)C2)N1 [Example 6, 2-[6-[[5-(trifluoromethoxy)-2-pyridyl]methyl]-2-azaspiro[3.3]heptane-2-carbonyl]-2,5-diazaspiro[3.4]octan-6-one]
- pIC50: 9.33

Compound: O=C1NC2(CO1)CN(C(=O)N1CC3(CCC(Oc4cnc(C(F)(F)F)cn4)C3)C1)C2 (single isomer, unassigned) [Example 104]
- pIC50: 8.55

Compound: O=C1NC2(CO1)CN(C(=O)N1CC3(C1)CN(c1cncc(F)c1)C3)C2 [Example 318, 2-[6-(5-fluoro-3-pyridyl)-2,6-diazaspiro[3.4]heptane-2-carbonyl]-7-oxa-2,5-diazaspiro[3.4]octan-6-one]
- pIC50: 6.84

Compound: Cc1cc(C(F)F)n(CC2CC3(C2)CN(C(=O)N2CC4(CCC(=O)N4)C2)C3)n1 [Example 346, 2-[6-[[5-(difluoromethyl)-3-methyl-pyrazol-1-yl]methyl]-2-azaspiro[3.3]heptane-2-carbonyl]-2,5-diazaspiro[3.4]octan-6-one]
- pIC50: 7.54

Compound: O=C1COCC2(CN(C(=O)N3CC4(CC(Cc5ccc(C(F)(F)F)nc5)C4)C3)C2)N1 [Example 174, 2-[6-[[6-(trifluoromethyl)-3-pyridyl]methyl]-2-azaspiro[3.3]heptane-2-carbonyl]-8-oxa-2,5-diazaspiro[3.5]nonan-6-one]
- pIC50: 7.78

Compound: O=C1COCC2(CN(C(=O)N3CC4(CC[C@H](Cc5cccc(S(=O)(=O)C(F)(F)F)c5)C4)C3)C2)N1 [Example 237, 2-[(6R)-6-[[3-(trifluoromethylsulfonyl)phenyl]methyl]-2-azaspiro[3.4]octane-2-carbonyl]-8-oxa-2,5-diazaspiro[3.5]nonan-6-one]
- pIC50: 8.50

Compound: N=S(=O)(c1cccc(OC(F)(F)F)c1)C1CC2(C1)CN(C(=O)N1CC3(CCC(=O)N3)C1)C2 (stereo not drawn) [Example 297, 2-[6-[[3-(trifluoromethoxy)phenyl]sulfonimidoyl]-2-azaspiro[3.3]heptane-2-carbonyl]-2,5-diazaspiro[3.4]octan-6-one]
- pIC50: 7.12

Compound: O=C1CCC2(CN(C(=O)N3CC4(CC(S(=O)(=O)c5cccc(OC(F)(F)F)c5)C4)C3)C2)N1 [Example 280, 2-[6-[3-(trifluoromethoxy)phenyl]sulfonyl-2-azaspiro[3.3]heptane-2-carbonyl]2,5-diazaspiro[3.4]octan-6-one]
- pIC50: 6.71

Compound: O=C1COCC2(CN(C(=O)N3CC4(CC(Cc5cnc(C(F)(F)F)nc5)C4)C3)C2)N1 [Example 232, 2-[6-[[2-(trifluoromethyl)pyrimi-din-5-yl]methyl]-2-azaspiro[3.3]heptane-2-carbonyl]-8-oxa-2,5-diazaspiro[3.5]nonan-6-one]
- pIC50: 6.64

Compound: O=C1NC2(CO1)CN(C(=O)N1CC3(CCN(Cc4cccc(S(=O)(=O)C(F)(F)F)c4)CC3)C1)C2 [Example 139, 2-[7-(3-triflylbenzyl)-2,7-diazaspiro[3.5]nonane-2-carbonyl]-7-oxa-2,5-diazaspiro[3.4]octan-6-one]
- pIC50: 9.12

Compound: O=C1CCC2(CN(C(=O)N3CC4(CC(Cn5ccc(C(F)(F)F)n5)C4)C3)C2)N1 [Example 225, 2-[6-[[3-(trifluoromethyl)pyrazol-1-yl]methyl]-2-azaspiro[3.3]heptane-2-carbonyl]-2,5-diazaspiro[3.4]octan-6-one]
- pIC50: 7.77

Compound: O=C1NC2(CO1)CN(C(=O)N1CC3(CC(Cc4ccc(C(F)(F)F)nn4)C3)C1)C2 [Example 36, 2-[6-[[6-(trifluoromethyl)pyrida-zin-3-yl]methyl]-2-azaspiro[3.3]heptane-2-carbonyl]-7-oxa-2,5-diazaspiro[3.4]octan-6-one]
- pIC50: 8.84

Compound: CC(C)(C)c1coc(CN2CC3(C2)CN(C(=O)N2CC4(CCC(=O)N4)C2)C3)n1 [Example 374, 2-[6-[(4-tert-butyloxazol-2-yl)methyl]-2,6-diazaspiro[3.3]heptane-2-carbonyl]-2,5-diazaspiro[3.4]octan-6-one]
- pIC50: 7.05

Compound: N=[S@](=O)(c1cccc(CC2CC3(C2)CN(C(=O)N2CC4(CCC(=O)N4)C2)C3)c1)C(F)(F)F [Example 292, 2-[6-[[3-(trifluoromethylsulfoni-midoyl)phenyl]methyl]-2-azaspiro[3.3]heptane-2-carbonyl]-2,5-diazaspiro[3.4]octan-6-one]
- pIC50: 8.89

Compound: N#Cc1cnn(CC2CC3(C2)CN(C(=O)N2CC4(CCC(=O)N4)C2)C3)c1 [Example 247, 1-[[2-(6-oxo-2,5-diazaspiro[3.4]octane-2-carbonyl)-2-azaspiro[3.3]heptan-6-yl]methyl]pyrazole-4-carbonitrile]
- pIC50: 6.51

Compound: N#Cc1cc(OC2CC3(C2)CN(C(=O)N2CC4(CCC(=O)N4)C2)C3)ccc1C(F)(F)F [Example 307, 5-[[2-(6-oxo-2,5-diazaspiro[3.4]octane-2-carbonyl)-2-azaspiro[3.3]heptan-6-yl]oxy]-2-(trifluoromethyl)benzoni-trile]
- pIC50: 7.32

Compound: O=C1CCC2(CN(C(=O)N3CC4(CCC(Cc5ccc(Cl)cn5)CC4)C3)C2)N1 [Example 120, 2-[7-[(5-chloro-2-pyridyl)methyl]-2-azaspiro[3.5]nonane-2-carbonyl]-2,5-diazaspiro[3.4]octan-6-one]
- pIC50: 8.53

Compound: N#Cc1ccc(CC2CC3(C2)CN(C(=O)N2CC4(CCCC(=O)N4)C2)C3)c(F)c1 [Example 273, 3-fluoro-4-[[2-(6-oxo-2,5-diazaspiro[3.5]nonane-2-carbonyl)-2-azaspiro[3.3]heptan-6-yl]methyl]benzonitrile]
- pIC50: 7.17

Compound: O=C1NC2(CO1)CN(C(=O)N1CC3(CCN(S(=O)(=O)C45CC(C(F)(F)F)(C4)C5)CC3)C1)C2 [Example 204, 2-[7-[[3-(trifluoromethyl)-1-bicyclo[1.1.1]pentanyl]sulfonyl]-2,7-diazaspiro[3.5]nonane-2-carbonyl]-7-oxa-2,5-diazaspiro[3.4]octan-6-one]
- pIC50: 7.93

Compound: N#Cc1cc(C(F)(F)F)ncc1C[C@@H]1CCC2(C1)CN(C(=O)N1CC3(COC(=O)N3)C1)C2 [Example 213, 5-[[(6R)-2-(6-oxo-7-oxa-2,5-diazaspiro[3.4]octane-2-carbonyl)-2-azaspiro[3.4]octan-6-yl]methyl]-2-(trifluoromethyl)pyridine-4-carbonitrile]
- pIC50: 9.26

Compound: O=C1COCC2(CN(C(=O)N3CC4(CCN(Cc5cccc(S(=O)(=O)C(F)(F)F)c5)C4)C3)C2)N1 [Example 260, 2-[7-[[3-(trifluoromethylsulfonyl)phenyl]methyl]-2,7-diazaspiro[3.4]octane-2-carbonyl]-8-oxa-2,5-diazaspiro[3.5]nonan-6-one]
- pIC50: 7.09

Compound: O=C1NC2(CO1)CN(C(=O)N1CC3(CCN(Cc4ccc(C(F)(F)F)cn4)C3)C1)C2 [Example 154, 2-[7-[[5-(trifluoromethyl)-2-pyridyl]methyl]-2,7-diazaspiro[3.4]octane-2-carbonyl]-7-oxa-2,5-diazaspiro[3.4]octan-6-one]
- pIC50: 8.39
